These results are taken from PubChem BioAssay AID624410 (The Scripps Research Institute Molecular Screening Center, 2012).

The structures appear in SMILES notation. Active and inactive are the calls of the source. No rule for the calls is given here.

The assay deals with Orexin/Hypocretin receptor type 1 (Homo sapiens) (UniProt O43613). Nature of the assay: HCRTR1 antagonism measured by time-resolved FRET – cell-based, HTRF, OX1R antagonist probe project, late-stage follow-up (AID 624410). The note with it: OX1R-expressing cells, HTRF antagonist assay. Background: TR-FRET usually uses a lanthanide donor and a delayed reading to cut background.
Sequence of Orexin/Hypocretin receptor type 1 (Homo sapiens) (O43613 whole entry, looked up): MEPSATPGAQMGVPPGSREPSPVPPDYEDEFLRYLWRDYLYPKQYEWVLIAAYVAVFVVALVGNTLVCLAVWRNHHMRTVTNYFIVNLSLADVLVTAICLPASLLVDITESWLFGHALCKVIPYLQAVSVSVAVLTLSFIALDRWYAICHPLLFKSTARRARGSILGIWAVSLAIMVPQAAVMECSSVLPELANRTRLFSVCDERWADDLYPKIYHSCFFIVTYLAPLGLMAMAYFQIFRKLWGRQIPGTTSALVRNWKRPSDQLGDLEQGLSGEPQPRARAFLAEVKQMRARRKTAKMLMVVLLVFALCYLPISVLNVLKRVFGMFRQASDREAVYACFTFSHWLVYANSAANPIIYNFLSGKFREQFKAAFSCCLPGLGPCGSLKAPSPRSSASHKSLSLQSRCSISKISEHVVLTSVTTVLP

The IC50 is the point on the concentration scale where inhibition reaches its midpoint. For `Cc1ccccc1NC(=O)C1CCCN1S(=O)(=O)c1ccccc1C(F)(F)F` (stereo not given), the IC50 is 3740 nM.
With `Cc1cccc(NC(=O)[C@@H]2CCCN2S(=O)(=O)c2ccc(Cl)cc2)c1` the figure was 2030 nM; with `COc1ccc(OC)c(S(=O)(=O)NCC(c2ccco2)N2CCc3ccccc32)c1` (stereo not given), 2710 nM; with `O=C(CSc1ccc(-c2ccccc2)nn1)c1cccs1`, 1960 nM.
With `CCN(CC)c1ccc(NC(=O)Cn2c(C(C)NC(=O)c3ccccc3)nc3ccccc32)cc1` (stereo not given) the figure was 655 nM; with `COCCCNC(=O)CCC(=O)NNc1nc2ccccc2c2nc(-c3ccccc3)nn12`, 6540 nM; with `CC(=C/c1ccccc1)/C=C1/SC(N2CCOCC2)=NC1=O`, 3020 nM.
`COc1cc(OC)c(-c2nc3ccccc3s2)cc1OC`: the IC50 was 1900 nM.
The value for `CCOC(=O)N1CCN(C(=O)CSc2ccc(-c3ccccc3)nn2)CC1` was “inactive”; that for `COc1cccc(/C=C2/Oc3ccccc3N(CC(=O)NCC3CCCO3)C2=O)c1` (stereo not given) was 468 nM.
For the molecule `Fc1cccc(Nc2nc3ccccc3n3cnnc23)c1`, the IC50 is 3340 nM.
With `CCc1cc2c(SCC(=O)N(CC)c3c(N)n(Cc4ccccc4)c(=O)[nH]c3=O)ncnc2s1` the figure was 1610 nM; with `Cc1noc(C)c1COc1ccc(C(=O)OCC(=O)N2CC(=O)Nc3ccccc32)cc1`, “inactive”.
The value for `Cc1cc(Cl)ccc1OCCCC(=O)NCCN1C(=O)S/C(=C\c2cccnc2)C1=O` was 437 nM; that for `O=C(CN1C(=O)/C(=C\c2cccc(Br)c2)Oc2ccccc21)NCC1CCCO1` (stereo not given) was 277 nM.
The value for `CCOc1ccccc1C(=O)Nc1ccc2nc3n(c(=O)c2c1)CCCCC3` was 769 nM.
Turning to `CSc1cccc(N2CC(C(=O)NCCN3C(=O)S/C(=C\c4cccnc4)C3=O)CC2=O)c1` (stereo not given), the IC50 is 1900 nM.
The value for `CCn1c(SCC(=O)Nc2ccc3c(c2)c2ccccc2n3CC)nnc1-c1cnccn1` was 844 nM; that for `Cc1cccc(C=NNC(=O)c2cc3c(s2)-c2ccccc2CC3)c1` was 2820 nM.
Regarding `Cc1c(NS(=O)(=O)c2cccc(C(=O)OCC(=O)N(C)C3CCCCC3)c2)c(=O)n(-c2ccccc2)n1C`, the IC50 was 750 nM.
The value for `CCSC1=C(C#N)C(c2ccccc2Cl)C(C(=O)c2cccs2)C(O)(C(F)(F)F)N1` (stereo not given) was 611 nM; that for `CSc1cccc(NC(=O)C2CCCN2S(=O)(=O)c2ccc(Br)s2)c1` (stereo not given) was 386 nM; that for `CCc1cc(C(=O)OCC(=O)N2CCC(c3ccccc3)=N2)sc1C` was 2190 nM.
With `Cc1ccc(-c2csc3nnc(SCC(=O)Nc4nsc(-c5ccccc5)n4)n23)cc1` the figure was 3060 nM; with `O=c1cc(CN2CC(O)Cc3ccc4ccccc4c32)nc2sccn12` (stereo not given), “inactive”.
